Measurements published in ChEMBL document CHEMBL5360614, “Quinoline Thiourea-Based Zinc Ionophores with Antibacterial Activity” (J Med Chem, 2023).
The source made the active and inactive calls.

What was measured:
[1] = test system: Staphylococcus aureus; assay: In vivo antibacterial activity against Staphylococcus aureus MTCC-96 infected in Balb/c mouse assessed as normal morphology of spleen tissue at 31.6 microM/Kg, iv for 7 days in presence of ZnCl2 by hematoxylin and eosin staining based microscopic analysis; type: functional, organism-based; details: time 7.0 day
[2] = test system: Staphylococcus aureus; assay: Antibacterial activity against Staphylococcus aureus MTCC-96 assessed as reduction in bacterial growth incubated for 14 to 16 hrs in presence of 100 to 400 uM Zn(NO3)2 by microbroth dilution method; type: functional, organism-based; details: time 14-16 hrs
[3] = test system: Staphylococcus aureus; assay: Antibacterial activity against Staphylococcus aureus MTCC-96 assessed as reduction in bacterial growth incubated for 14 to 16 hrs in presence of 100 to 400 uM ZnSO4 by microbroth dilution method; type: functional, organism-based; details: time 14-16 hrs
[4] = test system: Staphylococcus aureus; assay: In vivo antibacterial activity against Staphylococcus aureus MTCC-96 infected in Balb/c mouse assessed as reduction in bacterial load by measuring CFU in spleen at 31.6 microM/Kg, iv for 7 days in presence of ZnCl2 by CFU assay; type: functional, organism-based; details: time 7.0 day
[5] = test system: Lipid bilayer; assay: (§1) Induction of ionophore activity across EYPC:CHOL (8:2) large unilamellar vesicles assessed as transmembrane cation transport by measuring decrease in fluorescence intensity for HPTS dye preincubated for 3 mins followed by MgCl2 addition and mesured after 7.5 mins by HPTS dye based fluorescence spectrophotometric analysis; details: time 10.5 min
[6] = Binding affinity to Zn2+ ion assessed as binding constant by Benesi-Hildebrand equation analysis
[7] = test system: Staphylococcus aureus; assay: In vivo antibacterial activity against Staphylococcus aureus MTCC-96 infected in Balb/c mouse assessed as normal architecture of bile duct in liver tissue at 31.6 microM/Kg, iv for 7 days in presence of ZnCl2 by hematoxylin and eosin staining based microscopic analysis; type: functional, organism-based; details: time 7.0 day
[8] = test system: Staphylococcus aureus; assay: Bactericidal activity against Staphylococcus aureus MTCC-96 assessed as reduction in bacterial colony formation at 2 times MIC incubated upto 8 hrs in presence of ZnCl2 by agar-plate method; type: functional, organism-based
[9] = test system: Escherichia coli; assay: Antibacterial activity against Escherichia coli MTCC 1687 assessed as reduction in bacterial growth incubated for 14 to 16 hrs by microbroth dilution method; type: functional; details: time 14-16 hrs
[10] = test system: Lipid bilayer; assay: as §1, with “CaCl2” for “MgCl2”; details: time 10.5 min
[11] = test system: Lipid bilayer; assay: Induction of ionophore activity across EYPC:CHOL (8:2) large unilamellar vesicles assessed as transmembrane anion transport by measuring decrease in fluorescence intensity for HPTS dye at 10 uM preincubated for 3 mins followed by ZnCl2 addition and mesured after 7.5 mins by HPTS dye based fluorescence spectrophotometric analysis; details: filed as opener, time 10.5 min
[12] = test system: Lipid bilayer; assay: Induction of ionophore activity across EYPC:CHOL (8:2) large unilamellar vesicles assessed as transmembrane Zn2+ ion transport by measuring decrease in fluorescence intensity for HPTS dye at 25 uM preincubated for 3 mins followed by 1 to 25 mM ZnCl2 addition and mesured after 7.5 mins by HPTS dye based fluorescence spectrophotometric analysis; details: filed as opener, time 10.5 min
[13] = test system: Staphylococcus aureus; assay: In vivo antibacterial activity against Staphylococcus aureus MTCC-96 infected in Balb/c mouse assessed as bacterial load by measuring CFU in liver at 156.5 microM/Kg, iv for 7 days by CFU assay (Rvb= 719 CFU); type: functional; details: time 7 day
[14] = test system: Staphylococcus aureus; assay: Bactericidal activity against Staphylococcus aureus MTCC-96 at 2 times MIC incubated for 1 hrs by time kill assay; type: functional, organism-based
[15] = test system: Staphylococcus aureus; assay: In vivo antibacterial activity against Staphylococcus aureus MTCC-96 infected in Balb/c mouse assessed as less dilated portal vein in liver at 156.5 microM/Kg, iv for 7 days by hematoxylin and eosin staining based microscopic analysis; type: functional, organism-based; details: time 7.0 day
[16] = test system: Staphylococcus aureus; assay: In vivo antibacterial activity against Staphylococcus aureus MTCC-96 infected in Balb/c mouse assessed as normal morphology of spleen tissue at 156.5 microM/Kg, iv for 7 days by hematoxylin and eosin staining based microscopic analysis; type: functional, organism-based; details: time 7.0 day
[17] = test system: Lipid bilayer; assay: as §1, with “CsCl” for “MgCl2”; details: time 10.5 min
[18] = test system: MCF-10A; assay: Cytotoxicity against human MCF-10A cells assessed as reduction in cell viability at 1 to 100 uM incubated for 44 hrs by MTT assay; type: toxicity, cell-based; details: dose 1-100 µM
[19] = test system: Staphylococcus aureus; assay: Antibacterial activity against Staphylococcus aureus MTCC-96 assessed as resistance development by measuring fold increase in MIC and measured after 30 days by microbroth dilution method; type: functional; details: time 30 day
[20] = test system: Staphylococcus aureus; assay: Antibacterial activity against gentamicin-and methicillin-resistant Staphylococcus aureus ATCC 33592 assessed as reduction in bacterial growth incubated for 14 to 16 hrs by microbroth dilution method; type: functional; details: time 14-16 hrs
[21] = test system: Staphylococcus aureus; assay: Antibacterial activity against Staphylococcus aureus MTCC-96 assessed as reduction in bacterial growth incubated for 14 to 16 hrs in presence of 100 to 400 uM ZnBr2 by microbroth dilution method; type: functional, organism-based; details: time 14-16 hrs
[22] = test system: Staphylococcus aureus; assay: Antibacterial activity against Staphylococcus aureus MTCC-96 assessed as reduction in bacterial growth incubated for 14 to 16 hrs in presence of 100 to 400 uM MgCl2 by microbroth dilution method; type: functional, organism-based; details: time 14-16 hrs
[23] = test system: Staphylococcus aureus; assay: Disruption of membrane integrity in Staphylococcus aureus MTCC-96 assessed as change in cocci shape in presence of Zn2+ ion by FE-SEM analysis; type: functional, organism-based
[24] = test system: Staphylococcus aureus; assay: Antibacterial activity against gentamicin-and methicillin-resistant Staphylococcus aureus ATCC 33592 assessed as reduction in bacterial growth incubated for 14 to 16 hrs in presence of 200 uM ZnCl2 by microbroth dilution method; type: functional; details: time 14-16 hrs
[25] = test system: Staphylococcus aureus; assay: Induction of intracellular ROS generation in Staphylococcus aureus MTCC-96 at 1 uM incubated for 30 mins in presence of Zn2+ ions by DCF-DA staining based fluorescence microscopic analysis; type: functional, organism-based
[26] = test system: Staphylococcus aureus; assay: In vivo antibacterial activity against Staphylococcus aureus MTCC-96 infected in Balb/c mouse assessed as uniform distribution of hepatic lobules in liver tissue at 156.5 microM/Kg, iv for 7 days by hematoxylin and eosin staining based microscopic analysis; type: functional, organism-based; details: time 7.0 day
[27] = test system: Cell membrane; assay: Induction of cell membrane depolarization in Staphylococcus aureus MTCC-96 assessed as change in fluorescence intensity at 3.13 uM by DiSC3-5 dye based fluorescence method; type: subcellular
[28] = test system: MDA-MB-231; assay: Cytotoxicity against human MDA-MB-231 cells assessed as reduction in cell viability at 1 to 100 uM incubated for 44 hrs by MTT assay; type: toxicity, cell-based; details: mda-mb-231, 44 h, dose 1-100 µM
[29] = test system: Staphylococcus aureus; assay: In vivo antibacterial activity against Staphylococcus aureus MTCC-96 infected in Balb/c mouse assessed as normal architecture of central vein in liver tissue at 31.6 microM/Kg, iv for 7 days in presence of ZnCl2 by hematoxylin and eosin staining based microscopic analysis; type: functional, organism-based; details: time 7.0 day
[30] = test system: Staphylococcus aureus; assay: Antibacterial activity against Staphylococcus aureus MTCC-96 assessed as reduction in bacterial growth incubated for 14 to 16 hrs in presence of 100 to 400 uM CsCl by microbroth dilution method; type: functional, organism-based; details: time 14-16 hrs
[31] = test system: Staphylococcus aureus; assay: In vivo antibacterial activity against Staphylococcus aureus MTCC-96 infected in Balb/c mouse assessed as uniform distribution of hepatic lobules in liver tissue at 31.6 microM/Kg, iv for 7 days in presence of ZnCl2 by hematoxylin and eosin staining based microscopic analysis; type: functional, organism-based; details: time 7.0 day
[32] = test system: Lipid bilayer; assay: as §1, with “NaCl” for “MgCl2”; details: time 10.5 min

FC(F)(F)c1cc(NC(=S)Nc2cccc3ccc(-n4cnc5ccccc54)nc23)cc(C(F)(F)F)c1
active: Activity [1] | Activity [2] | Activity [3] | Activity [4] | Activity [7] | Activity [8] | Activity [11] | Activity [12] | Activity [14] | Activity [15] | Activity [16] | Activity [21] | Activity [25] | Activity [26] | Activity [29] | Activity [31]
14: fold change (FC) [19]
46 CFU: Activity [13]
> 50 µM: MIC [9]
2 µM: MIC [24]
1.36 10^3/M: K [6]
inactive: Activity [5] | Activity [10] | Activity [17] | Activity [22] | Activity [23] | Activity [27] | Activity [30] | Activity [32]
Non-Toxic: Activity [18] | Activity [28]
3.13 µM: MIC [20]
